# According to patent publication US20060293307A1, “Oxazolidinone derivatives as antimicrobials” (priority 2002, published 2006):
# Legend:
# Assay in all cases: MIC, agar incorporation method
# S. aureus (MRSA) 15187 = assay type: cell-based, Staphylococcus aureus; details: Staphylococcus aureus, MRSA
# S. pneumoniae ATCC 6303 = assay type: cell-based, Streptococcus pneumoniae; details: Streptococcus pneumoniae, ATCC6303
# S. pneumoniae AB4 = assay type: cell-based, Streptococcus pneumoniae; details: Streptococcus pneumoniae, AB4
# S. pneumoniae AB 30 = assay type: cell-based, Streptococcus pneumoniae; details: Streptococcus pneumoniae, AB30
# S. pneumoniae 1275 = assay type: cell-based, Streptococcus pneumoniae; details: Streptococcus pneumoniae, 1275
# S. aureus ATCC29213 = assay type: cell-based, Staphylococcus aureus; details: Staphylococcus aureus, ATCC29213
# S. haemo ATCC 29970 = assay type: cell-based
# S. pneumoniae AB 23 = assay type: cell-based, Streptococcus pneumoniae; details: Streptococcus pneumoniae, AB23
# S. epidermidis 358 = assay type: cell-based, Staphylococcus epidermidis; details: Staphylococcus epidermidis, 358
# [1] = system: S. epidermidis (MRSE)32965; assay type: cell-based, Staphylococcus epidermidis; details: Staphylococcus epidermidis, MRSE
# (MRSA) 562 = assay type: cell-based, Staphylococcus aureus; details: Staphylococcus aureus, MRSA
# [2] = system: S. epidermidis ATCC 12228; assay type: cell-based, Staphylococcus epidermidis; details: Staphylococcus epidermidis, ATCC12228
# S. pneumoniae 217 = assay type: cell-based, Streptococcus pneumoniae; details: Streptococcus pneumoniae, 217
# S. pneumoniae AB 21 = assay type: cell-based, Streptococcus pneumoniae; details: Streptococcus pneumoniae, AB21
# E. faecalis 21777 = assay type: cell-based; details: Enterococcus faecalis, 21777
# S. epidermidis 823 = assay type: cell-based, Staphylococcus epidermidis; details: Staphylococcus epidermidis, 823
# E. durans 581 = assay type: cell-based; details: Enterococcus durans, 581
# Moraxella cata. M2 = assay type: cell-based; details: Moraxella, CATA.M2
# Acinetobacter 9956 = assay type: cell-based; details: Acinetobacter, 9956
# S. aureus (Smith 49951) = assay type: cell-based, Staphylococcus aureus; details: Staphylococcus aureus
# E. coli 25922 = assay type: cell-based; details: Escherichia coli, 25922
# E. faecium 398(VRE) = assay type: cell-based, Enterococcus faecium; details: Enterococcus faecium, VRE
# S. aureus (MRSA) ST450 = assay type: cell-based, Staphylococcus aureus; details: Staphylococcus aureus, MRSA
# S. pyogenes 25147 = assay type: cell-based, Streptococcus pyogenes; details: Streptococcus pyogenes, 25147
# S. pneumoniae 1251 = assay type: cell-based, Streptococcus pneumoniae; details: Streptococcus pneumoniae, 1251
# E. faecalis 29212 = assay type: cell-based; details: Enterococcus faecalis, 29212
# Moraxella M1 = assay type: cell-based; details: Moraxella, M1
# S. pneumoniae 1256 = assay type: cell-based, Streptococcus pneumoniae; details: Streptococcus pneumoniae, 1256
# [3] = system: Serratia marcescens 12999; assay type: cell-based; details: Serratia marcescens, 12999
# S. pneumoniae AB-2 = assay type: cell-based, Streptococcus pneumoniae; details: Streptococcus pneumoniae, AB2
# S. pyogenes 19615 = assay type: cell-based, Streptococcus pyogenes; details: Streptococcus pyogenes, 19615
# S. pneumoniae ATCC 49619 = assay type: cell-based, Streptococcus pneumoniae; details: Streptococcus pneumoniae, ATCC49619
# S. aureus (MRSA) 21299 = assay type: cell-based, Staphylococcus aureus; details: Staphylococcus aureus, MRSA
# S. aureus SG 511 = assay type: cell-based, Staphylococcus aureus; details: Staphylococcus aureus, SG511
# S. pneumoniae AB 17 = assay type: cell-based, Streptococcus pneumoniae; details: Streptococcus pneumoniae, AB17
# S. pneumoniae AB 16 = assay type: cell-based, Streptococcus pneumoniae; details: Streptococcus pneumoniae, AB16
SMILES,MIC (S. aureus (MRSA) 15187) [µg/mL],MIC (S. pneumoniae ATCC 6303) [µg/mL],MIC (S. pneumoniae AB4) [µg/mL],MIC (S. pneumoniae AB 30) [µg/mL],MIC (S. pneumoniae 1275) [µg/mL],MIC (S. aureus ATCC29213) [µg/mL],MIC (S. haemo ATCC 29970) [µg/mL],MIC (S. pneumoniae AB 23) [µg/mL],MIC (S. epidermidis 358) [µg/mL],MIC [1] [µg/mL],MIC ((MRSA) 562) [µg/mL],MIC [2] [µg/mL],MIC (S. pneumoniae 217) [µg/mL],MIC (S. pneumoniae AB 21) [µg/mL],MIC (E. faecalis 21777) [µg/mL],MIC (S. epidermidis 823) [µg/mL],MIC (E. durans 581) [µg/mL],MIC (Moraxella cata. M2) [µg/mL],MIC (Acinetobacter 9956) [µg/mL],MIC (S. aureus (Smith 49951)) [µg/mL],also measured
"CC(=O)NC[C@H]1CN(c2ccc(N3CCOCC3)c(F)c2)C(=O)O1 [Linezolid, reference compound]",2,1,0.25,1,1,2,< 0.5,1,1,1,1,< 0.5,1,1,2,< 0.5,1,4,> 16,1,MIC (E. coli 25922): > 16 µg/mL; MIC (E. faecium 398(VRE)): 1 µg/mL; MIC (S. aureus (MRSA) ST450): 1 µg/mL; MIC (S. pyogenes 25147): 1 µg/mL; MIC (S. pneumoniae 1251): 1 µg/mL; MIC (E. faecalis 29212): 2 µg/mL; MIC (Moraxella M1): 4 µg/mL; MIC (S. pneumoniae 1256): 1 µg/mL; MIC [3]: > 16 µg/mL; MIC (S. pneumoniae AB-2): 0.25 µg/mL; MIC (S. pyogenes 19615): 1 µg/mL; MIC (S. pneumoniae ATCC 49619): 1 µg/mL; MIC (S. aureus (MRSA) 21299): 1 µg/mL; MIC (S. aureus SG 511): 2 µg/mL; MIC (S. pneumoniae AB 17): 1 µg/mL; MIC (S. pneumoniae AB 16): 1 µg/mL
"CN[C@H](CC(C)C)C(=O)N[C@H]1C(=O)N[C@@H](CC(N)=O)C(=O)N[C@H]2C(=O)N[C@H]3C(=O)N[C@H](C(=O)N[C@H](C(=O)O)c4cc(O)cc(O)c4-c4cc3ccc4O)[C@H](O)c3ccc(c(Cl)c3)Oc3cc2cc(c3O[C@@H]2O[C@H](CO)[C@@H](O)[C@H](O)[C@H]2O[C@H]2C[C@](C)(N)[C@H](O)[C@H](C)O2)Oc2ccc(cc2Cl)[C@H]1O [Vancomycin, reference compound]",0.5,0.25,0.25,0.25,0.5,0.5,1,0.25,2,2,1,1,0.5,0.25,2,2,> 16,> 8,> 16,1,MIC (E. coli 25922): > 16 µg/mL; MIC (E. faecium 398(VRE)): > 16 µg/mL; MIC (S. aureus (MRSA) ST450): 0.5 µg/mL; MIC (S. pyogenes 25147): 0.5 µg/mL; MIC (S. pneumoniae 1251): 0.25 µg/mL; MIC (E. faecalis 29212): 4 µg/mL; MIC (Moraxella M1): > 8 µg/mL; MIC (S. pneumoniae 1256): 0.5 µg/mL; MIC [3]: > 16 µg/mL; MIC (S. pneumoniae AB-2): 0.5 µg/mL; MIC (S. pyogenes 19615): 0.5 µg/mL; MIC (S. pneumoniae ATCC 49619): 0.25 µg/mL; MIC (S. aureus (MRSA) 21299): 0.5 µg/mL; MIC (S. aureus SG 511): 0.5 µg/mL; MIC (S. pneumoniae AB 17): 0.25 µg/mL; MIC (S. pneumoniae AB 16): 0.25 µg/mL
